Assay results: patent US20250320496A1, “MODULATION OF ABCB11 GENE TRANSCRIPTION USING ANTISENSE OLIGONUCLEOTIDES TARGETING REGULATORY RNAS” (CAMP4 Therapeutics Corporation, priority 2022, published 2025)
Strand notation (5' to 3'): a small letter for the sugar, then the base; units joined by * are phosphorothioate-linked, units joined directly phosphodiester-linked; [ ] holds rarer units or linkages, { } end groups; capitals alone tell only the bases. e = 2'-O-(2-methoxyethyl) (MOE); l = locked nucleic acid (LNA); [5mC] = 5-methylcytosine; d = 2'-deoxy (DNA)

System: human ABCB11 mRNA
Assay: ASO treatment of primary human hepatocytes (PHH), ABCB11 mRNA by RT-qPCR normalized to B2M
Assay type: cell-based
Settings: primary human hepatocytes; for ABCB11 mRNA FC (5 μM ASO vs. UNT): normalized to untreated PHHs (UNT); for ABCB11 FC mRNA (5 μM ASO vs. untreated): 5 μM ASO with PO-modifications, normalized to untreated hepatocytes
How it was run: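 Plated primary human hepatocytes were treated 4 h post-thaw with ASO (e.g., 1.25–10 μM; initial screen 5 μM) in medium containing 0.3 mg/ml Matrigel for 72 hrs. Total RNA was reverse-transcribed and ABCB11 mRNA measured by Taqman RT-qPCR, normalized to B2M, with fold change versus untreated PHHs.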

Row | Substance | ABCB11 mRNA FC (5 μM ASO vs. UNT) | ABCB11 FC mRNA (5 μM ASO vs. untreated)
1 | CO-7166: derivative ASO with additional chemical modifications based on parent ASO CO-4535 (antisense eG*eT*eT*eA*eT*eT*eA*eA*eT*eT*e[5mC]*eT*eA*e[5mC]*eA*eG*eA*eG*eG*eG) | 1.517 fold change | 
2 | CO-7189: derivative ASO with additional chemical modifications based on parent ASO CO-4535 (antisense eT*eG*lG*e[5mC]*lG*eT*lT*eA*lT*eT*lA*eA*lT*eT*l[5mC]*eT*lA*e[5mC]*eA*eG) | 1.487 fold change | 
3 | CO-4490 (antisense e[5mC]*eG*eA*eG*eA*eA*eA*eA*eT*eG*eA*eG*eG*eT*eA*e[5mC]*eA*eT*eG*eG) | 1.158 fold change | 
4 | CO-7015 (antisense eA*eG*eT*eG*eA*dG*dG*d[5mC]*eA*dT*d[5mC]*dA*dG*eG*dT*dA*dA*eG*eT*eT*e[5mC]*e[5mC]) | 1.257 fold change | 
5 | CO-11240 (antisense eG*eT*eG*eG*lAeG*e[5mC]*eA*eAlA*e[5mC]*eT*eAeG*lG*e[5mC]*eAe[5mC]*eT*eG) |  | 1.31 fold change
6 | CO-4504 (antisense eG*eT*eG*eT*e[5mC]*eT*eA*eT*eT*eT*eG*eG*eT*eA*eT*e[5mC]*eA*eG*eA*e[5mC]) | 1.232 fold change | 
7 | CO-4527 (antisense eG*eA*eG*e[5mC]*eA*eT*e[5mC]*eA*eG*eG*eT*eA*e[5mC]*e[5mC]*eA*eT*eG*eA*e[5mC]*eA) | 0.97 fold change | 
8 | CO-7159 (antisense eG*eG*eA*eG*eG*eT*eG*eG*eA*eG*e[5mC]*eA*eA*eA*e[5mC]*eT*eA*eG*eG*e[5mC]) | 1.326 fold change | 
9 | CO-4033 (antisense eG*eA*eA*eA*e[5mC]*e[5mC]*eT*eT*eT*eT*eA*eA*e[5mC]*eT*e[5mC]*eT*e[5mC]*e[5mC]*eA*e[5mC]) | 1.472 fold change | 
10 | CO-4041 (antisense eT*e[5mC]*e[5mC]*eA*eA*eG*eG*e[5mC]*e[5mC]*eT*eG*eT*eT*eG*eA*e[5mC]*eA*e[5mC]*e[5mC]*e[5mC]) | 0.963 fold change | 
11 | CO-7052 (antisense eT*e[5mC]*eA*e[5mC]*e[5mC]*eT*eT*eG*eG*eT*eT*e[5mC]*e[5mC]*e[5mC]*e[5mC]*e[5mC]*eT*eG*e[5mC]*eT) | 1.046 fold change | 
12 | CO-7014 (antisense eA*eG*eT*eG*eA*eG*eG*e[5mC]*eA*eT*e[5mC]*eA*eG*eG*eT*eA*eA*eG*eT*eT*e[5mC]*e[5mC]) | 1.293 fold change | 
13 | CO-11226 (antisense eG*eT*lGeG*eA*lG*e[5mC]*eAlA*eA*e[5mC]*lT*eAeG*lG*e[5mC]*eA*l[5mC]eT*eG) |  | 2.31 fold change
14 | CO-4520 (antisense eG*eG*eA*eA*eG*eA*eA*eG*eG*eT*eT*eA*eG*e[5mC]*eA*e[5mC]*eA*eG*eA*e[5mC]) | 0.945 fold change | 
15 | CO-7109 (eA*e[5mC]*eA*eT*eT*lT*dA*dG*lA*dG*dA*d[5mC]*dA*lA*dA*dG*lA*eA*eT*e[5mC]*eG*e[5mC]; antisense) | 1.043 fold change | 
16 | CO-6984 (antisense eT*eG*eA*eG*eG*eT*e[5mC]*eT*eA*eA*eT*eT*eT*eA*eG*eA*eA*eG*eA*e[5mC]) | 1.127 fold change | 
17 | CO-7178: derivative ASO with additional chemical modifications based on parent ASO CO-4529 (antisense eG*eT*eG*lG*eA*lG*e[5mC]*lA*eA*lA*e[5mC]*lT*eA*lG*eG*l[5mC]*eA*l[5mC]*eT*eG) | 1.737 fold change | 
18 | CO-6675 (antisense eA*eG*e[5mC]*eA*eA*eG*e[5mC]*eT*eG*eT*eG*eT*eG*eG*eA*eA*eG*eG*eA*e[5mC]) | 1.346 fold change | 
19 | CO-7051 (antisense eA*e[5mC]*e[5mC]*eT*eT*eG*eG*eT*eT*e[5mC]*e[5mC]*e[5mC]*e[5mC]*e[5mC]*eT*eG*e[5mC]*eT*eG*eT) | 1.201 fold change | 
20 | CO-6968 (antisense eT*eG*eG*eA*eT*dG*dT*dA*dG*dA*dT*dG*dA*dA*dT*eG*eG*e[5mC]*eA*eA) | 1.373 fold change | 
21 | CO-11236 (antisense eG*eT*eGeGlAeGe[5mC]*eA*eA*lA*e[5mC]*eT*eA*eGlGe[5mC]eAe[5mC]*eT*eG) |  | 1.60 fold change
22 | CO-4058 (antisense eG*eA*eT*eT*e[5mC]*eA*e[5mC]*eA*eA*eG*eA*eA*eG*eG*eG*eA*eG*eA*eG*eG) | 1.134 fold change | 
23 | CO-7025 (antisense eA*eG*eT*eG*eA*eG*e[5mC]*eT*eT*eA*eT*e[5mC]*eT*eG*eG*eA*eA*eA*eA*eT) | 1.259 fold change | 
24 | CO-6971 (antisense eA*eT*eG*eG*eG*eT*eG*eT*eG*eG*eA*eT*eG*eT*eA*eG*eA*eT*eG*eA) | 1.091 fold change | 
25 | CO-4528 (antisense e[5mC]*eT*eG*eG*eG*eA*eT*eA*eG*eG*eG*eT*eG*eG*eA*eT*e[5mC]*eT*eA*e[5mC]) | 0.883 fold change | 

Row | Substance | ABCB11 mRNA FC (5 μM ASO vs. UNT) | ABCB11 FC mRNA (5 μM ASO vs. untreated)
26 | CO-4512 (antisense eA*eA*e[5mC]*eG*eGeAeAeG*eG*eGeTeT*eAeA*eA*eG*eG*eT*eA*eT) | 1.087 fold change | 
27 | CO-4521 (antisense eG*e[5mC]*eA*eT*eT*eT*e[5mC]*eA*eG*eA*eG*e[5mC]*eA*e[5mC]*eA*eG*eA*eG*eT*eG) | 1.092 fold change | 
28 | CO-7103 (eT*eA*eT*e[5mC]*eT*eG*eG*eA*eA*eA*eA*eT*eA*eA*eT*eG*e[5mC]*e[5mC]*eT*eT*eT*e[5mC]*eT*eA; antisense) | 1.006 fold change | 
29 | CO-7055 (antisense eT*e[5mC]*eA*e[5mC]*e[5mC]*e[5mC]*e[5mC]*e[5mC]*e[5mC]eT*e[5mC]*eA*e[5mC]*e[5mC]*eT*eT*eG*eG*eT*eT) | 1.498 fold change | 
30 | CO-7108 (eA*e[5mC]*eA*eT*eT*dT*dA*dG*eA*dG*dA*d[5mC]*dA*eA*dA*dG*dA*eA*eT*e[5mC]*eG*e[5mC]; antisense) | 1.101 fold change | 
31 | CO-7105 (eT*eA*eT*e[5mC]*eT*dG*dG*lA*dA*dA*lA*dT*dA*lA*dT*dG*l[5mC]*d[5mC]*dT*eT*eT*e[5mC]*eT*eA; antisense) | 1.002 fold change | 
32 | CO-6973 (antisense eA*eA*eA*eA*eA*eT*eG*eGeGeT*eGeT*eG*eG*eA*eT*eG*eT*eA*eG) | 1.325 fold change | 
33 | CO-12746 (antisense eG*eT*eG*eAeGeGe[5mC]*eA*eT*e[5mC]*eA*eG*eG*eTeAeAeG*eT*eT*e[5mC]) |  | 1.09 fold change
34 | CO-4483 (antisense eT*e[5mC]*eA*e[5mC]*eA*eA*eA*eT*eA*eG*eA*eT*eT*eG*eA*eG*eG*eG*eT*e[5mC]) | 1.041 fold change | 
35 | CO-4031 (antisense eG*eG*e[5mC]*eT*eT*e[5mC]*e[5mC]*eT*e[5mC]*eA*eA*eA*eT*eT*e[5mC]*eA*eT*eA*eT*eT) | 1.427 fold change | 
36 | CO-6673 (antisense eG*eA*eA*eG*eG*dA*d[5mC]*dA*d[5mC]*dA*dA*dT*dT*dT*d[5mC]*eT*eG*eT*eA*eG) | 1.313 fold change | 
37 | CO-4038 (antisense e[5mC]*eT*e[5mC]*eG*eT*eA*eT*eG*eT*e[5mC]*eA*e[5mC]*eT*eG*eA*eA*e[5mC]*eT*eG*eT) | 1.701 fold change | 
38 | CO-7153 (antisense eA*e[5mC]*e[5mC]*eT*eT*eA*eG*eG*eA*eG*eG*eA*eT*eT*eA*eT*eT*eT*eA*eA*e[5mC]*e[5mC]*eT*e[5mC]) | 1.409 fold change | 
39 | CO-4016 (antisense eT*eT*eT*eT*eA*eA*e[5mC]*eT*eT*eG*eG*e[5mC]*eT*eT*eT*eG*eT*eG*eA*eA) | 1.294 fold change | 
40 | CO-12754 (antisense eG*eT*eGeA*eG*eGe[5mC]*eA*eTe[5mC]*eA*eGeG*eT*eAeA*eG*eTeT*e[5mC]) |  | 1.04 fold change
41 | CO-6996 (antisense eG*eT*eG*lA*eG*dG*d[5mC]*lA*dT*d[5mC]*dA*lG*dG*dT*dA*lA*eG*eT*eT*e[5mC]) | 1.314 fold change | 
42 | CO-11220 (antisense eG*eT*lGeG*lAeG*l[5mC]eA*lAeA*l[5mC]eT*lAeG*lGe[5mC]*lAe[5mC]*eT*eG) |  | 2.22 fold change
43 | CO-4509 (antisense eT*eG*eG*eA*eT*eG*eT*eA*eG*eA*eT*eG*eA*eA*eT*eG*eG*e[5mC]*eA*eA) | 1.233 fold change | 
44 | CO-4034 (antisense e[5mC]*eG*eA*eG*eG*eT*eT*eG*eG*eA*eA*eA*eA*eG*eG*eT*eT*eG*eT*eG) | 0.792 fold change | 
45 | CO-7006 (antisense eG*eT*eG*eG*eA*eT*eG*eT*eA*eG*eA*eT*eG*eA*eA*eT*eG*eG*e[5mC]*eA*eA*eG) | 1.279 fold change | 
46 | CO-4052 (antisense e[5mC]*e[5mC]*eA*eG*eG*eG*eT*eG*e[5mC]*eA*eA*eG*eA*eG*eT*eT*eG*eT*e[5mC]*eT) | 1.054 fold change | 
47 | CO-11211 (antisense eG*eT*lG*eGlAeGl[5mC]*eA*lA*eA*l[5mC]*eT*lA*eGlGe[5mC]lA*e[5mC]*eT*eG) |  | 2.80 fold change
48 | CO-6972 (antisense eA*eA*eA*eT*eG*eG*eG*eT*eG*eT*eG*eG*eA*eT*eG*eT*eA*eG*eA*eT) | 1.207 fold change | 
49 | CO-7057 (antisense eA*e[5mC]*eT*eG*e[5mC]*eT*e[5mC]*eA*e[5mC]*e[5mC]*e[5mC]*e[5mC]*e[5mC]*e[5mC]*eT*e[5mC]*eA*e[5mC]*e[5mC]*eT) | 1.145 fold change | 
